# Test results as given in patent publication US20260176267A1, “PREPARATION OF IMIDAZOPYRIDINE AND IMIDAZOPYRIDAZINE DERIVATIVES AS NOVEL DIACYLGLYCERIDE O-ACYLTRANSFERASE 2 INHIBITORS” (Merck Sharp & Dohme LLC, priority 2022, published 2026).
# Target: T1, human DGAT2 (hDGAT2) (Homo sapiens, UniProt Q96PD7)
# T1 construct: made in house; host or cells: Sf-9 insect cells (baculovirus), membrane fraction
# T1 sequence (Q96PD7 1-388): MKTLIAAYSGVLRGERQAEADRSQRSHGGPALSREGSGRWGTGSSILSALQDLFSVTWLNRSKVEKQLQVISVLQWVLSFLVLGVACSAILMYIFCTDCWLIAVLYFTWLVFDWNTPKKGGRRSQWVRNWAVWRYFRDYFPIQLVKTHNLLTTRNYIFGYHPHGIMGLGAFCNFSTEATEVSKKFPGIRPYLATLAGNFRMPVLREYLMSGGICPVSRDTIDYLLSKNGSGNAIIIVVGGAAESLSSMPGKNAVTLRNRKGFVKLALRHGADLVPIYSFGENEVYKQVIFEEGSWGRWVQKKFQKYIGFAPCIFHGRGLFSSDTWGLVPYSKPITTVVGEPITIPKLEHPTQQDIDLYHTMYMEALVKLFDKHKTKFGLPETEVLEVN
# Assay: DGAT2 Enzymatic Activity Assay
# Assay type: biochemical
# Settings: membrane prep of Sf-9 cells expressing hDGAT2; 13C18-triolein product by LC/MS/MS; 25 μM diolein, 5 μM 13C oleoyl-CoA, rt
# Protocol: Sf-9 insect cells were maintained in Grace's insect cell culture medium with 10% heated-inactivated fetal bovine serum, 1% Pluronic F-68 and 0.14 μg/ml Kanamycine sulfate at 27° C. in a shaker incubator. After infection with untagged baculovirus expressing human DGAT2 (hDGAT2) at multiplicity of infection (MOI) 3 for 48 hours, cells were harvested. Cell pellets were suspended in buffer containing 10 mM Tris-HCl pH 7.5, 1 mM EDTA, 250 mM sucrose and Complete Protease Inhibitor Cocktail (Sigma Aldrich), and sonicated on ice. Cell debris were removed by centrifugation at 2000×g for 15 minutes. Membrane fractions were isolated by ultracentrifugation (100,000×g), resuspended in the same buffer, and frozen (−80° C.) for later use. The protein concentration was determined with the Pierce™ BCA Protein Assay Kit (Thermo Fisher Scientific).
# LC/MS/MS analyses were performed using Thermal Fisher's LX4-TSQ Vantage system. This system consists of an Agilent binary high-performance liquid chromatography (HPLC) pump and a TSQ Vantage triple quadrupole MS/MS instrument. For each sample, 2 μL samples from the top organic layer of in-plate liquid-liquid extraction were injected onto a Thermo Betabasic C4 column (2.1 mm×20 mm, 5 μm particle size). The samples were then eluted using the following conditions; mobile phase: Isopropanol:acetonitrile/10 mM ammonium formate=50/35/15 (v/v/v), flow rate: 0.8 mL/min, temperature: 25° C. Data was acquired in positive mode using a heated electrospray ionization (HESI) interface. The operational parameters for the TSQ Vantage MS/MS instrument were a spray voltage of 3000 V, capillary temperature of 280° C., vaporizer temperature 400° C., sheath gas 45 arbitrary unit. Aux gas 10 arbitrary units. […] The peak area was integrated by Xcalibur Quan software. The ratio between the ^13C18 triolein generated in the reaction and spiked in internal standard ^13C21-triolein was used to generate percentage inhibition and IC50 values. Compound percentage inhibition was calculated by the following formula: Inhibition %=1−[(compound response−low control)/(high control−low control)]×100%.
# DGAT2 activity was determined by measuring the amount of enzymatic product ^13C18-triolein (^13C-1,2,3-Tri(cis-9-octadecenoyl)glycerol) using the membrane prep mentioned above. The assay was carried out in ABgene 384-well assay plates in a final volume of 25 μL at rt.
row,SMILES,IC50
1,"Cc1cc2nc(C(=O)NC3(C)CCS(=O)(=O)CC3)cn2cc1Oc1nccnc1OCC(F)(F)F [Example 20, 7-methyl-N-(4-methyl-1,1-dioxidotetrahydro-2H-thiopyran-4-yl)-6-((3-(2,2,2-trifluoroethoxy)pyrazin-2-yl)oxy)imidazo[1,2-a]pyridine-2-carboxamide]",17.3 nM
2,"CCOc1cccnc1Oc1ccc2nc(C(=O)NC3(C)CC(F)(F)C3)cn2c1 [Example 23, N-(3,3-difluoro-1-methyl-cyclobutyl)-6-[(3-ethoxy-2-pyridyl)oxy]imidazo[1,2-a]pyridine-2-carboxamide]",31 nM
3,"Cc1cc(Oc2ncccc2OCC(F)(F)F)cn2cc(C(=O)NC3(C)CCS(=O)(=O)CC3)nc12 [Example 24, 8-methyl-N-(4-methyl-1,1-dioxo-thian-4-yl)-6-[[3-(2,2,2-trifluoroethoxy)-2-pyridyl]oxy]imidazo[1,2-a]pyridine-2-carboxamide]",117 nM
4,"CCOc1cccnc1Oc1ccc2nc(C(=O)N[C@H]3CC[C@](OC)(C(F)(F)F)CC3)cn2c1 [Example 26, 6-[(3-ethoxy-2-pyridyl)oxy]-N-[4-methoxy-4-(trifluoromethyl)cyclohexyl] imidazo[1,2-a]pyridine-2-carboxamide]",10 nM
5,"Cc1c(Oc2ncc(F)cc2OCC(F)F)ccc2nc(C(=O)NC3(C)CC(F)(F)C3)cn12 [Example 28, 6-[[3-(2,2-difluoroethoxy)-5-fluoro-2-pyridyl]oxy]-N-(3,3-difluoro-1-methyl-cyclobutyl)-5-methyl-imidazo[1,2-a]pyridine-2-carboxamide]",59 nM
6,"Cc1cc2nc(C(=O)NC3(C)CCS(=O)(=O)CC3)cn2cc1Oc1ncc(F)cc1OCC(F)(F)F [Example 29, 6-[[5-fluoro-3-(2,2,2-trifluoroethoxy)-2-pyridyl]oxy]-7-methyl-N-(4-methyl-1,1-dioxo-thian-4-yl)imidazo[1,2-a]pyridine-2-carboxamide]",13 nM
7,"Cc1c(Oc2ncc(Cl)cc2OCC(C)(F)F)ccc2nc(C(=O)NC3(C)CCS(=O)(=O)CC3)cn12 [Example 31, 6-[[5-chloro-3-(2,2-difluoropropoxy)-2-pyridyl]oxy]-5-methyl-N-(4-methyl-1,1-dioxo-thian-4-yl)imidazo[1,2-a]pyridine-2-carboxamide]",9.1 nM
8,"CC1(NC(=O)c2cn3cc(Oc4ncc(F)cc4OCC(F)(F)F)ccc3n2)CS(=O)(=O)C1 [Example 32, 6-[[5-fluoro-3-(2,2,2-trifluoroethoxy)-2-pyridyl]oxy]-N-(3-methyl-1,1-dioxo-thietan-3-yl)imidazo[1,2-a]pyridine-2-carboxamide]",31 nM
9,"CCOc1cccnc1Oc1ccc2nc(C(=O)N[C@@]3(C)CCS(=O)(=O)C3)cn2c1 [Example 35, 6-[(3-ethoxy-2-pyridyl)oxy]-N-[(3S)-3-methyl-1,1-dioxo-thiolan-3-yl]imidazo[1,2-a]pyridine-2-carboxamide]",52 nM
10,"Cc1c(Oc2ncccc2OCC(F)(F)F)ccc2nc(C(=O)NC3(C)CCS(=O)(=O)CC3)cn12 [Example 36, 5-methyl-N-(4-methyl-1,1-dioxo-thian-4-yl)-6-[[3-(2,2,2-trifluoroethoxy)-2-pyridyl]oxy]imidazo[1,2-a]pyridine-2-carboxamide]",30 nM
11,CCOc1cccnc1Oc1ccc2nc(C(=O)N[C@@H]3CCCC[C@@H]3O)cn2c1 [Example 37],124 nM
12,"CCOc1cccnc1Oc1ccc2nc(C(=O)NC3CC(C)(C)OC(C)(C)C3)cn2c1 [Example 38, 6-[(3-ethoxy-2-pyridyl)oxy]-N-(2,2,6,6-tetramethyltetrahydropyran-4-yl)imidazo[1,2-a]pyridine-2-carboxamide]",56 nM
13,"CC1(NC(=O)c2cn3c(F)c(Oc4ncccc4OCC(F)(F)F)ccc3n2)CCS(=O)(=O)CC1 [Example 39, 5-fluoro-N-(4-methyl-1,1-dioxo-thian-4-yl)-6-[[3-(2,2,2-trifluoroethoxy)-2-pyridyl]oxy]imidazo[1,2-a]pyridine-2-carboxamide]",74 nM
14,"Cc1cc2nc(C(=O)NC3(C)CCS(=O)(=O)CC3)cn2c(C)c1Oc1ncc(F)cc1OCC(C)(F)F [Example 40, 6-[[3-(2,2-difluoropropoxy)-5-fluoro-2-pyridyl]oxy]-5,7-dimethyl-N-(4-methyl-1,1-dioxo-thian-4-yl)imidazo[1,2-a]pyridine-2-carboxamide]",52 nM
15,"Cc1cc2nc(C(=O)NC3(C)CCS(=O)(=O)CC3)cn2cc1Oc1ncc(Cl)cc1OCC1(F)COC1 [Example 41, 6-[[5-chloro-3-[(3-fluorooxetan-3-yl)methoxy]-2-pyridyl]oxy]-7-methyl-N-(4-methyl-1,1-dioxo-thian-4-yl)imidazo[1,2-a]pyridine-2-carboxamide]",74 nM
16,"CC1(CNC(=O)c2cn3cc(Oc4ncc(Cl)cc4OCC(F)(F)F)ccc3n2)CS(=O)(=O)C1 [Example 42, 6-[[5-chloro-3-(2,2,2-trifluoroethoxy)-2-pyridyl]oxy]-N-[(3-methyl-1,1-dioxo-thietan-3-yl)methyl]imidazo[1,2-a]pyridine-2-carboxamide]",50 nM

# Stronger by IC50, values ahead:
row,IC50,SMILES
1,1.4 nM,Cc1c(Oc2ncc(Cl)cc2OCC(F)(F)F)ccc2nc(C(=O)NC3(C)CCS(=O)(=O)CC3)cn12 [Example 17]
2,2 nM,"CC(F)(F)COc1cc(Cl)cnc1Oc1ccc2nc(C(=O)NC3(C)CCS(=O)(=O)CC3)cn2c1 [Example 18, 6-[[5-chloro-3-(2,2-difluoropropoxy)-2-pyridyl]oxy]-N-(4-methyl-1,1-dioxo-thian-4-yl)imidazo[1,2-a]pyridine-2-carboxamide]"
3,7.7 nM,"Cc1cc2nc(C(=O)NC3(C)CCS(=O)(=O)CC3)cn2cc1Oc1ncc(F)cc1OCC(C)(F)F [Example 19, 6-[[3-(2,2-difluoropropoxy)-5-fluoro-2-pyridyl]oxy]-7-methyl-N-(4-methyl-1,1-dioxo-thian-4-yl)imidazo[1,2-a]pyridine-2-carboxamide]"
4,1.8 nM,"CC1(NC(=O)c2cn3cc(Oc4ncc(F)cc4OCC(F)(F)F)c(F)cc3n2)CCS(=O)(=O)CC1 [Example 21, 7-fluoro-6-[[5-fluoro-3-(2,2,2-trifluoroethoxy)-2-pyridyl]oxy]-N-(4-methyl-1,1-dioxo-thian-4-yl)imidazo[1,2-a]pyridine-2-carboxamide]"
5,3.5 nM,"CCOc1cccnc1Oc1ccc2nc(C(=O)N[C@H]3CCCC[C@@H]3O)cn2c1 [Example 22, 6-[(3-ethoxy-2-pyridyl)oxy]-N-[(1S,2S)-2-hydroxycyclohexyl]imidazo [1,2-a]pyridine-2-carboxamide]"
6,3.8 nM,"Cc1cc2nc(C(=O)NC3(C)CC(F)(F)C3)cn2cc1Oc1ncc(F)cc1OCC(F)F [Example 25, 6-[[3-(2,2-difluoroethoxy)-5-fluoro-2-pyridyl]oxy]-N-(3,3-difluoro-1-methyl-cyclobutyl)-7-methyl-imidazo[1,2-a]pyridine-2-carboxamide]"
7,6.2 nM,"Cc1cc2nc(C(=O)NC3(C)CCS(=O)(=O)CC3)cn2cc1Oc1ncc(Cl)cc1OCC(F)(F)F [Example 30, 6-[[5-chloro-3-(2,2,2-trifluoroethoxy)-2-pyridyl]oxy]-7-methyl-N-(4-methyl-1,1-dioxo-thian-4-yl)imidazo[1,2-a]pyridine-2-carboxamide]"
8,5.3 nM,"Cc1c(Oc2ncc(F)cc2OCC2(F)CC2)ccc2nc(C(=O)NC3(C)CCS(=O)(=O)CC3)cn12 [Example 33, 6-[[5-fluoro-3-[(1-fluorocyclopropyl)methoxy]-2-pyridyl]oxy]-5-methyl-N-(4-methyl-1,1-dioxo-thian-4-yl)imidazo[1,2-a]pyridine-2-carboxamide]"
9,2.8 nM,"Cc1c(Oc2ncc(F)cc2OCC(F)(F)F)ccc2nc(C(=O)NC3(C)CCS(=O)(=O)CC3)cn12 [Example 34, 6-[[5-fluoro-3-(2,2,2-trifluoroethoxy)-2-pyridyl]oxy]-5-methyl-N-(4-methyl-1,1-dioxo-thian-4-yl)imidazo[1,2-a]pyridine-2-carboxamide]"
